The values below come from patent publication US9446045B2, “Methods of using selective chemotherapeutic agents for targeting tumor cells” (Duquesne University of the Holy Ghost, priority 2006, dated 2016).

Assay [1] relates to FR-alpha expressing RT16 cells. Kind of assay: Inhibition of FR-alpha expressing RT16 cells. Type of assay: cell-based. Conditions: for selectivity for FR-alpha expressing RT16 cells over RFC expressing pc43-10 cells: RT16 vs pc43-10 cells. As for the experimental part:
(§1) AAG366, AAG344, the clinically used antifolates methotrexate, pemetrexed, ratitrexed, as well as the most important GARFTase inhibitor DDATHF (Lometrexol) were evaluated.

Assay [2] relates to RFC expressing pc43-10 cells. Kind of assay: Inhibition of RFC expressing pc43-10 cells. It counts as cell-based. Conditions: pc43-10 cells vs FR-alpha expressing cells. As for the experimental part:
as §1

In the case of `Nc1nc2c(c(=O)[nH]1)C[C@@H](CCc1ccc(C(=O)N[C@@H](CCC(=O)O)C(=O)O)cc1)CN2` [DDATHF], in assay [1], the “potency against FR-alpha expressing RT16 cells compared with AAG366 and AAG344” value was “less potent”; the “selectivity for FR-alpha expressing RT16 cells over RFC expressing pc43-10 cells” value is reported as “none showed selectivity”. The “potency against RFC expressing pc43-10 cells compared to FR-alpha expressing RT16 or KB cells” value in assay [2] is “equal potency”.
For `CN(Cc1cnc2nc(N)nc(N)c2n1)c1ccc(C(=O)N[C@@H](CCC(=O)O)C(=O)O)cc1` [methotrexate] the same measures were “less potent”, “none showed selectivity” and “greater potency”.
`Nc1nc2[nH]cc(CCc3ccc(C(=O)N[C@@H](CCC(=O)O)C(=O)O)cc3)c2c(=O)[nH]1` [pemetrexed]: in assay [1], the “potency against FR-alpha expressing RT16 cells compared with AAG366 and AAG344” value is listed as “less potent”; the “selectivity for FR-alpha expressing RT16 cells over RFC expressing pc43-10 cells” value is reported as “none showed selectivity”. Moreover, the “potency against RFC expressing pc43-10 cells compared to FR-alpha expressing RT16 or KB cells” value in assay [2] is on record as “greater potency”.
The matching figures for `Cc1nc(=O)c2cc(CN(C)c3ccc(C(=O)N[C@@H](CCC(=O)O)C(=O)O)s3)ccc2[nH]1` [ratitrexed]: “less potent”, “none showed selectivity” and “greater potency”.
